Numbers after ± are expanded uncertainties.
Settings: 323.15 K; Liquid

| SMILES | vapor or sublimation pressure |
| --- | --- |
| O [water] | 12.35 ± 0.17 kPa |
| CO [methanol] | 55.61 ± 0.52 kPa |
| COC(C)=O [methyl ethanoate] | 79.21 ± 0.71 kPa |
| CC(=O)O [acetic acid] | 7.72 ± 0.28 kPa |

Reference: the NIST ThermoML archive (doi:10.1016/j.fluid.2006.06.005)
